{"source": "paper PMC9786748", "about": "“Carvacrol and HP-β-Cyclodextrin Complexes: Extensive Characterization and Potential Cytotoxic Effect in Human Colorectal Carcinoma Cells” (Pharmaceutics, 2022)", "key": {"[1]": {"parameters": "method as in PMID 25298799", "conditions": "with HP-β-CDs; cited from earlier work"}, "[2]": {"parameters": "method as in PMID 25298799", "conditions": "with RAMEB; cited from earlier work"}, "[3]": {"parameters": "method as in PMID 25298799", "conditions": "with CRYSMEB; cited from earlier work"}, "[4]": {"assay": "Solubility of carvacrol in the absence of cyclodextrins (S0) at different pH", "format": "physicochemical", "conditions": "for S0 (solubility of carvacrol) / solubility at 60 min: absence of CDs; for solubility at 60 min: aqueous buffer, thermodynamic from solid", "experimental": "(§1) The solubility studies of carvacrol, in the presence of CDs, were performed according to the method described by Higuchi and Connors in 1965, with slight modifications. […] For an evaluation of the pH effect in the process of complex formation, these solutions were prepared in different buffer solutions: 100 mM sodium acetate buffer, pH 3.5 and 5.5; 100 mM sodium phosphate buffer, pH 6.5 and 7.0; and 100 mM sodium borate buffer, pH 8.5. To each solution, a saturating amount of the carvacrol under analysis was added, then the solutions were kept in an ultrasonic bath for 60 min in the dark at 25 °C until equilibrium was reached. After this point, the solutions were filtered through 0.45 μm nylon to remove the excess carvacrol.\n(§2) To quantify the amount of monoterpene in each filtrate, the complexes were disrupted by adding 80% ethanol. Each solution was then introduced into a gas chromatograph, coupled to a mass spectrometer (Shimadzu QP 2010) equipped with an Slb-5 ms (30 m × 0.25 mm × […]) capillary column. The operating conditions are as follows: the starting temperature is 70 °C, the temperature is increased at a rate of 4 °C/min until it reaches 160 °C and is then increased to 280 °C at a rate of 30 °C/min, then held there for 6 min; the inlet temperature is 250 °C, the injection type is a 1:20 split mode, with helium used as the carrier gas. Component identification is based on the relative elution times and comparison of the mass spectra of each peak against a database containing the system.\n(§3) Once the concentrations of carvacrol in each sample were quantified, the values obtained were plotted against the concentrations of CDs. For the calculation of KC, the slope and intercept of the phase diagrams related to the solubility studies were determined, according to Equation (1):(1) KC=Slope/S0 (1−Slope) where S0 is the solubility of carvacrol at 25 °C, in the absence of cyclodextrins, and Slope is the gradient of the phase solubility diagrams."}, "[5]": {"assay": "Phase solubility study of carvacrol with α-CDs (Higuchi and Connors)", "format": "physicochemical", "experimental": "as §1, §2, §3\n(§4) To determine the complexation efficiency (CE) of carvacrol, Equation (2) was used:(2) CE=[carvacrol−CDs]/[CD]=S0× KC.\n(§5) The molar ratio (MR) of carvacrol:CDs was calculated using the CE values and Equation (3):(3) carvacrol:CDs=1:(1+1/CE)."}, "[6]": {"assay": "Phase solubility study of carvacrol with β-CDs (Higuchi and Connors)", "format": "physicochemical", "conditions": "for CE (complexation efficiency) / KC: β-CDs", "experimental": "as §1, §2, §3, §4, §5"}, "[7]": {"assay": "Phase solubility study of carvacrol with HP-β-CDs (Higuchi and Connors)", "format": "physicochemical", "experimental": "as §1, §2, §3, §4, §5"}, "[8]": {"assay": "Complexation of carvacrol with HP-β-CD by ultrasound (US)", "format": "physicochemical", "experimental": "as §3\nThe solubility method was developed from that used by Higuchi and Connors, with minor modifications. We added an excess of carvacrol to an aqueous solution that increased the concentration to 100 mM HP-β-CD, in 100 mL of water, at 25 °C. […] The aqueous solutions were filtered through 0.45 µm nylon to remove the excess free carvacrol. To determine the amount of carvacrol complexed, samples were diluted in ethanol-water at 80% and analyzed via gas chromatography–mass spectrometry (CG–MS)."}, "[9]": {"assay": "Complexation of carvacrol with HP-β-CD by microwave irradiation (MWI)", "format": "physicochemical", "conditions": "for increase in solubility of carvacrol / KC: HP-β-CDs", "experimental": "as §3\nThe calculation of the complexation constant (KC) between carvacrol and HP-β-CDs was carried out by the addition of different concentrations of HP-β-CDs to 100 mL of water, maintaining a 1:1 molar ratio. Aqueous HP-β-CD solutions (0–100 mM) were irradiated with microwaves for 30 s at 10 s intervals until the dissolution reached 70 °C. The carvacrol was then added to each sample and irradiated again for 30 s at the same intervals (10 s) until the samples reached 70 °C. Subsequently, the samples were shaken and held for 12 h in scintillation vials, sealed with parafilm, and protected from light.\nThen, we repeated the above procedure by irradiating the sample again until it reached 70 °C. The solution was then filtered through 0.45 μm nylon to remove the excess carvacrol. Finally, the concentration of monoterpene was determined via CG-MS."}, "[10]": {"tested_on": "HCT-116 colorectal cancer cells", "assay": "Cell viability assay (tetrazolium), HCT-116", "format": "cell-based", "conditions": "Homo sapiens; HCT-116, 72 h incubation", "experimental": "(§6) Colorectal adenocarcinoma (HCT-116) and non-tumoral fetal lung fibroblast (MRC5) cell lines were obtained from the American Type Culture Collection (ATCC, Rockville, MD, USA). The cell lines were cultivated in high glucose Dulbecco’s modified Eagle’s medium (DMEM) and Eagle’s minimum essential medium (EMEM), respectively, containing 10% heat-inactivated fetal bovine serum (FBS), 2 mM glutamine, 50 U/mL penicillin and 50 µg/mL streptomycin (Sigma-Aldrich Chemical Co., St. Louis, MO, USA) in an atmosphere of 5% CO2 and 95% humidified air at 37 °C. The subculture was complete when 90% confluence was reached. Fibroblasts for up to 15 doublings were used for the experiments.\n(§7) Exponentially growing cells were plated in triplicate in flat-bottomed 96-well plates (Nunc, Roskilde, Denmark) at 1500 cells/well for HCT-116 and 4000 cells/well for MRC5. The following day, compounds were added in serial dilutions, from 50 µM to 1000 µM. Control wells contained compound-free medium plus 0.1% dimethyl sulfoxide (DMSO). The plates were incubated for 3 days in a humidified 5% CO2 incubator and cell viability was determined. […] The formazan crystals were dissolved in 200 µL DMSO for 30 min and the absorbance was read at 570 nm in a microtiter plate reader. The results were calculated as:(7) cell viability (%)=average O.D of wells/average O.D of control wells."}, "[11]": {"tested_on": "MRC-5 lung fibroblast cells", "assay": "Cell viability assay (tetrazolium), MRC-5", "format": "cell-based", "conditions": "Homo sapiens, MRC5; MRC-5, 72 h incubation", "experimental": "as §6, §7"}, "[12]": {"conditions": "end of the 7-day period, 300 µM, DMEM with HCT-116 cells, 37 °C", "experimental": "Carvacrol release from the free and complexed carvacrol was monitored by chromatography (see Section 2.2). Briefly, 1 × 10^5 HCT-116 cells were grown for up to 7 days in DMEM, supplemented with 300 µM free or complexed HP-β-CD-carvacrol, at 37 °C. At each appropriate time point (days 1–7), 1 mL aliquots were withdrawn and replaced with an equal volume of fresh medium. All determinations were made in triplicate."}, "[13]": {"conditions": "weak acid; cited from earlier work"}}, "note": "Read-outs that look alike come from different tables or passages of the source.", "data": [{"smiles": "O=C(O)/C=C/c1ccc(O)cc1", "note": "[p-coumaric acid]", "values": [{"measurement": "CE (complexation efficiency)", "setting": "[1]", "value": 2.30}, {"measurement": "CE (complexation efficiency)", "setting": "[2]", "value": 2.57}, {"measurement": "CE (complexation efficiency)", "setting": "[3]", "value": 1.89}]}, {"smiles": "Cc1ccc(C(C)C)cc1O", "note": "[carvacrol]", "values": [{"measurement": "S0 (solubility of carvacrol)", "setting": "[4]; pH 3.5, 25 °C", "value": "2760 ± 200", "unit": "µM"}, {"measurement": "S0 (solubility of carvacrol)", "setting": "[4]; pH 6.5, 25 °C", "value": "920 ± 110", "unit": "µM"}, {"measurement": "decrease of solubility at pH 7.0 relative to acidic pH", "setting": "[4]; pH 7.0 vs acidic pH (S0 = 2.76)", "value": 80, "unit": "%"}, {"measurement": "S0 (solubility of carvacrol)", "setting": "[4]; pH 8.5, 25 °C", "value": "760 ± 130", "unit": "µM"}, {"measurement": "solubility at 60 min", "setting": "[4]; sodium acetate buffer, pH 3.5, 25 °C", "value": 2760, "unit": "µM"}, {"measurement": "solubility at 60 min", "setting": "[4]; sodium acetate buffer, pH 5.5, 25 °C", "value": "1650 ± 160", "unit": "µM"}, {"measurement": "solubility at 60 min", "setting": "[4]; sodium borate buffer, pH 8.5, 25 °C", "value": 760, "unit": "µM"}, {"measurement": "solubility at 60 min", "setting": "[4]; sodium phosphate buffer, pH 6.5, 25 °C", "value": 920, "unit": "µM"}, {"measurement": "solubility at 60 min", "setting": "[4]; sodium phosphate buffer, pH 7.0, 25 °C", "value": "560 ± 30", "unit": "µM"}, {"measurement": "CE (complexation efficiency)", "setting": "[5]; pH 3.5", "value": 0.298}, {"measurement": "KC", "setting": "[5]; pH 3.5", "value": "108 ± 16", "unit": "L/mol"}, {"measurement": "CE (complexation efficiency)", "setting": "[5]; pH 5.5", "value": 0.317}, {"measurement": "KC", "setting": "[5]; pH 5.5", "value": "192 ± 24", "unit": "L/mol"}, {"measurement": "CE (complexation efficiency)", "setting": "[5]; pH 6.5", "value": 0.220}, {"measurement": "KC", "setting": "[5]; pH 6.5", "value": "239 ± 42", "unit": "L/mol"}, {"measurement": "CE (complexation efficiency)", "setting": "[5]; pH 7.0", "value": 0.224}, {"measurement": "KC", "setting": "[5]; pH 7.0", "value": "400 ± 56", "unit": "L/mol"}, {"measurement": "CE (complexation efficiency)", "setting": "[5]; pH 8.5", "value": 0.216}, {"measurement": "KC", "setting": "[5]; pH 8.5", "value": "284 ± 37", "unit": "L/mol"}, {"measurement": "KC with β-CDs relative to KC with α-CD", "setting": "[6]; compared with α-CD (400 ± 56)", "value": 8, "unit": "times higher"}, {"measurement": "CE (complexation efficiency)", "setting": "[6]; pH 3.5", "value": 0.386}, {"measurement": "KC", "setting": "[6]; pH 3.5", "value": "140 ± 21", "unit": "L/mol"}, {"measurement": "CE (complexation efficiency)", "setting": "[6]; pH 5.5", "value": 1.234}, {"measurement": "KC", "setting": "[6]; pH 5.5", "value": "748 ± 19", "unit": "L/mol"}, {"measurement": "CE (complexation efficiency)", "setting": "[6]; pH 6.5", "value": 0.797}, {"measurement": "KC", "setting": "[6]; pH 6.5", "value": "866 ± 180", "unit": "L/mol"}, {"measurement": "CE (complexation efficiency)", "setting": "[6]; pH 7.0", "value": 1.941}, {"measurement": "KC", "setting": "[6]; pH 7.0", "value": "3466 ± 115", "unit": "L/mol"}, {"measurement": "CE (complexation efficiency)", "setting": "[6]; pH 8.5", "value": 0.441}, {"measurement": "KC", "setting": "[6]; pH 8.5", "value": "580 ± 45", "unit": "L/mol"}, {"measurement": "CE (complexation efficiency)", "setting": "[7]; pH 3.5", "value": 0.546}, {"measurement": "KC", "setting": "[7]; pH 3.5", "value": "198 ± 19", "unit": "L/mol"}, {"measurement": "CE (complexation efficiency)", "setting": "[7]; pH 5.5", "value": 0.540}, {"measurement": "KC", "setting": "[7]; pH 5.5", "value": "327 ± 37", "unit": "L/mol"}, {"measurement": "CE (complexation efficiency)", "setting": "[7]; pH 6.5", "value": 1.399}, {"measurement": "KC", "setting": "[7]; pH 6.5", "value": "1521 ± 73", "unit": "L/mol"}, {"measurement": "CE (complexation efficiency)", "setting": "[7]; pH 7.0", "value": 2.824}, {"measurement": "KC", "setting": "[7]; pH 7.0", "value": "5042 ± 176", "unit": "L/mol"}, {"measurement": "CE (complexation efficiency)", "setting": "[7]; pH 8.5", "value": 0.739}, {"measurement": "KC", "setting": "[7]; pH 8.5", "value": "973 ± 94", "unit": "L/mol"}, {"measurement": "increase in solubility of carvacrol", "setting": "[8]; HP-β-CDs, US method", "value": 132.9, "unit": "times"}, {"measurement": "KC", "setting": "[8]; HP-β-CDs, US, pH 7.0", "value": "6909 ± 161", "unit": "L/mol"}, {"measurement": "KC", "setting": "[8]; HP-β-CDs, ultrasound (US), 24 h", "value": "8129 ± 194", "unit": "L/mol"}, {"measurement": "S0", "setting": "[8]; achieved by US", "value": 0.56, "unit": "mmol/L"}, {"measurement": "increase in solubility of carvacrol", "setting": "[9]; MWI, 24 h", "value": 151.8, "unit": "times"}, {"measurement": "increase in solubility of carvacrol", "setting": "[9]; MWI, 48 h", "value": 155.6, "unit": "times"}, {"measurement": "KC", "setting": "[9]; MWI, at 24 h, pH 7.0", "value": "8129 ± 194", "unit": "L/mol"}, {"measurement": "KC", "setting": "[9]; MWI, at 48 h, pH 7.0", "value": "6811 ± 107", "unit": "L/mol"}, {"measurement": "KC", "setting": "[9]; microwave irradiation (MWI)", "value": "6909 ± 161", "unit": "L/mol"}, {"measurement": "S0", "setting": "[9]; in the case of MWI", "value": 0.35, "unit": "mmol/L"}, {"measurement": "IC50", "setting": "[10]", "value": 385, "unit": "µM"}, {"measurement": "IC50", "setting": "[11]", "value": 398, "unit": "µM"}, {"measurement": "soluble drug (carvacrol release)", "setting": "[12]", "value": "4.37 ± 1.61", "unit": "%"}, {"measurement": "pKa", "setting": "[13]", "value": 10.38}]}]}
